{"source": "paper PMC8274846", "about": "“Biogenic nanoporous silicon carrier improves the efficacy of buparvaquone against resistant visceral leishmaniasis” (PLoS Neglected Tropical Diseases, 2021)", "key": {"peritoneal macrophages": {"tested_on": "peritoneal macrophages", "design": "method as in earlier work", "conditions": "ref 32 (Reimao et al.); cited from earlier work"}, "[1]": {"tested_on": "axenic L.donovani amastigotes, AG83-R, PMM (PMM resistant strain generated from AG83)", "assay": "microbe, parasite or virus in culture", "assay_type": "cell-based", "protocol": "(§1) L. donovani AG83 (MHOM/IN/83/AG83) and GE1 (MHOM/IN/80/GE1F8R) promastigotes were routinely grown in medium 199 supplemented with 10% heat-inactivated fetal bovine serum, 2 mM L-glutamine, 20 mM HEPES, 100 U/mL penicillin, and 100 μg/mL streptomycin at 25°C. L. donovani amastigote forms were grown and maintained as described previously. Axenic amastigote forms were derived from promastigote forms by culturing them in MMA/20 (medium for axenic amastigote) at pH 5.5 [22]. Axenically grown amastigotes were maintained by sub-culture of 10^5 parasites/ml repeated every fifth day under experimental conditions of 37°C temperature and 5% CO2 environment.\n(§2) SSG and PMM resistant L. donovani amastigotes were generated by using the methods described previously. […] The cultures were stabilized for three subcultures. Then, the drug concentration was increased until the cell population decreased approximately to 20% for each batch. Finally, when 90% cell population of the initial count was reduced, the phenotype generated was plated on medium 199 agar plates containing the same drug concentration, and a single colony was picked for culture in medium 199 liquid media at the same drug concentration. The cultured promastigotes are converted into amastigotes as described above. Drug pressure was withdrawn, and stability was checked at one, two, and four months. SSG and PMM resistant phenotype clones were labeled as AG83-R,SSG and AG83-R, PMM, respectively.\n(§3) The antileishmanial activity of the drug specimens (BPQ+NP, BPQ, SSG, AmB, PMM, and MF) against the axenic amastigotes were evaluated based on the IC50 value, which is the concentration of the specimen required to kill 50% of the parasites. The parasites were first seeded into 96-well plates at a density of 1x10^5 amastigotes/well in 200 μL medium. Then, 10 μL of the drug candidates at various concentrations were added and the final volume was adjusted to […] medium. The number of amastigotes in the wells treated with each specimen were compared to those in the untreated control wells.\n(§4) Microscopic examinations were performed in duplicates with various concentrations of pure drugs or buparvaquone-loaded nanoparticles and also for control wells. The amastigotes cells were counted for all cases using a hemocytometer. The mean of the control wells was considered as 100% survival. The counts in the treated wells at various concentrations were converted into percentages. Giemsa-stained slides of the macrophages infected with amastigotes were observed under a light microscope. Then the numbers of amastigotes and infected macrophages per 100 cells were counted for each slide. The percentage (%) of inhibition was calculated by using the equation %ofinhibition=C−T/C×100, (2) where C is the number of amastigotes/infected macrophages per 100 cells in the control well and T is the number of amastigotes/infected macrophages per 100 cells in the drug-treated well.\n(§5) Origin version 6.1 software was used to calculate IC50 and CC50 values by plotting a graph of the percentage of inhibition at various concentrations of all the observations."}, "[2]": {"tested_on": "axenic L.donovani amastigotes, AG83-R, SSG (SSG resistant strain generated from AG83)", "assay": "microbe, parasite or virus in culture", "assay_type": "cell-based", "protocol": "as §1, §2, §3, §4, §5"}, "[3]": {"tested_on": "intracellular L.donovani amastigotes, AG83-R, PMM, in macrophages", "assay": "microbe, parasite or virus in culture", "assay_type": "cell-based", "protocol": "as §2\n(§6) The intracellular antileishmanial activity was evaluated based on the reduction in the amastigote numbers in the infected macrophages after the treatment. The method was adapted from our previous work. Briefly, 4x10^6 amastigotes in 500 μL of RPMI-1640 suspension were added to each well containing macrophages with the macrophage: parasite ratio of 1:10. The plates were incubated for 4 h at 37°C in 5% CO2. After the parasite internalization period, cells were washed at least twice with fresh media to remove non-phagocytosed parasites. Then, the drug specimen suspended in 1 mL RPMI-1640 was added, and the samples were incubated for 72 h at 37°C in 5% CO2. The medium was aspirated, the coverslips were removed, and then fixed with methanol and air-dried. After staining with Giemsa, 100 cells on the glass discs were counted. Three independent experiments in quadruplicate for each concentration were performed.\nas §4, §5"}, "[4]": {"tested_on": "intracellular L.donovani amastigotes, AG83-R, SSG, in macrophages", "assay": "microbe, parasite or virus in culture", "assay_type": "cell-based", "protocol": "as §2, §6, §4, §5"}, "[5]": {"tested_on": "intracellular L.donovani amastigotes, GE1, in macrophages", "assay": "Antileishmanial activity against intracellular amastigotes, GE1", "assay_type": "cell-based", "protocol": "as §6, §4, §5"}, "[6]": {"tested_on": "axenic L.donovani amastigotes, GE1 (isolated strain resistant to SSG)", "assay": "Antileishmanial activity against axenic amastigotes, GE1", "assay_type": "cell-based", "protocol": "as §1, §3, §4, §5"}, "[7]": {"design": "method as in PMID 1289357, PMID 14695832", "conditions": "cited from earlier work"}, "[8]": {"tested_on": "wild-type AG83 L. donovani amastigotes in spleen", "assay": "Leishman-Donovan Unit (LDU) assay in infected mice", "assay_type": "in vivo, BALB/c mice", "protocol": "Spleen smears were stained with Giemsa to confirm infection. The infected animals were divided into three groups consisting 4-5 animals per group. The groups were classified as the infected control group, BPQ treated group and BPQ+NP treated group. […] The infected control group was injected an equal volume of PBS during the entire dosing period. […] After that spleen impression smears were prepared on glass slides and stained with Giemsa to analyze infected visceral organ (spleen) microscopically. The parasite burdens were determined by evaluating the LDU values, which were calculated by multiplying the number of amastigotes counted per 500 nuclei with the spleen weight in mg."}, "[9]": {"tested_on": "intracellular L.donovani amastigotes, wild-type AG83, in macrophages", "assay": "Antileishmanial activity against intracellular amastigotes, wild-type AG83", "assay_type": "cell-based", "conditions": "for IC50: Leishmania donovani, Macrophage", "protocol": "as §6, §4, §5"}, "L. infantum infection": {"tested_on": "L. infantum infection", "design": "method as in earlier work", "conditions": "against L. infantum infection; ref 32 (Reimao et al.); cited from earlier work"}, "[10]": {"tested_on": "axenic L.donovani amastigotes, wild-type AG83", "assay": "Antileishmanial activity against axenic amastigotes, wild-type AG83", "assay_type": "cell-based", "protocol": "as §1, §3, §4, §5"}, "[11]": {"conditions": "IC50 against drug resistant strain / IC50 against wild-type strain (AG83), axenic"}, "[12]": {"conditions": "Leishmania donovani, axenic amastigotes, mean ± σ, n = 4"}}, "note": "Where two headings read alike, the source gives them in different places.", "data": [{"compound": "CC(C)(C)[C@H]1CC[C@H](CC2=C(O)C(=O)c3ccccc3C2=O)CC1", "note": "[BPQ, Buparvaquone]", "values": [{"measurement": "CC50", "setting": "peritoneal macrophages", "result": "> 230", "unit": "µM"}, {"measurement": "Fold higher axenic IC50 of pure BPQ than BPQ+NP", "setting": "[1]; AG83-R, PMM", "result": 7, "unit": "fold"}, {"measurement": "Resistance index (RI), AG83-R, PMM", "setting": "[1]; [11]", "result": "2.1 ± 1.5"}, {"measurement": "IC50", "setting": "[1]; Leishmania donovani, read-out: Axenic IC50, AG83-R, PMM", "result": "7.1 ± 0.8", "unit": "µM"}, {"measurement": "Fold higher axenic IC50 of pure BPQ than BPQ+NP", "setting": "[2]; AG83-R, SSG", "result": 8, "unit": "fold"}, {"measurement": "Resistance index (RI), AG83-R, SSG", "setting": "[2]; [11]", "result": "2.4 ± 1.2"}, {"measurement": "IC50", "setting": "[2]; Leishmania donovani, read-out: Axenic IC50, AG83-R, SSG", "result": "8.1 ± 0.8", "unit": "µM"}, {"measurement": "Fold larger cellular IC50 of pure BPQ than BPQ+NP", "setting": "[3]; AG83-R, PMM", "result": 5, "unit": "fold"}, {"measurement": "Selectivity index (SI), AG83-R, PMM", "setting": "[3]; CC50/IC50, intracellular", "result": "60 ± 10"}, {"measurement": "IC50", "setting": "[3]; Leishmania donovani, Macrophage, 72 h, read-out: Cellular IC50, AG83-R, PMM", "result": "4.8 ± 0.5", "unit": "µM"}, {"measurement": "Fold larger cellular IC50 of pure BPQ than BPQ+NP", "setting": "[4]; AG83-R, SSG", "result": 5, "unit": "fold"}, {"measurement": "Selectivity index (SI), AG83-R, SSG", "setting": "[4]; CC50/IC50, intracellular", "result": "60 ± 10"}, {"measurement": "IC50", "setting": "[4]; Leishmania donovani, Macrophage, 72 h, read-out: Cellular IC50, AG83-R, SSG", "result": "5.4 ± 0.4", "unit": "µM"}, {"measurement": "Selectivity index (SI), GE1", "setting": "[5]; CC50/IC50, intracellular", "result": "90 ± 10"}, {"measurement": "Fold larger cellular IC50 of pure BPQ than BPQ+NP", "setting": "[5]; GE1", "result": 4, "unit": "fold"}, {"measurement": "IC50", "setting": "[5]; Leishmania donovani, Macrophage, intracellular amastigotes, 72 h, mean ± σ, n = 4, read-out: Cellular IC50, GE1", "result": "3.8 ± 0.4", "unit": "µM"}, {"measurement": "Fold higher axenic IC50 of pure BPQ than BPQ+NP", "setting": "[6]; GE1", "result": 4, "unit": "fold"}, {"measurement": "Resistance index (RI), GE1", "setting": "[6]; [11]", "result": "1.2 ± 1.4"}, {"measurement": "IC50", "setting": "[6]; [12]", "result": "4.1 ± 0.8", "unit": "µM"}, {"measurement": "Aqueous solubility", "setting": "[7]", "result": "< 0.03", "unit": "µg/mL"}, {"measurement": "Fold reduction of amastigote burden in spleen compared with the control group", "setting": "[8]; 1 mg/kg i.p. for 5 consecutive days", "result": 20, "unit": "fold"}, {"measurement": "Spleen wt.", "setting": "[8]; infected BALB/c mice, 1 mg/kg i.p. for 5 consecutive days, day 7 post-treatment, n = 5", "result": "100 ± 10", "unit": "mg"}, {"measurement": "Suppression / inhibition of parasite burden in vivo (summary statement)", "setting": "[8]; spleen of infected mice, intraperitoneal, corresponding doses", "result": 50, "unit": "%"}, {"measurement": "LDU (Leishman Donovan Unit = number of amastigotes per 500 nuclei × spleen weight in mg)", "setting": "[8]; spleen, 1 mg/kg i.p. for 5 consecutive days", "result": "2 ± 1 × 10^4"}, {"measurement": "Amastigotes per 500 nuclei", "setting": "[8]; spleen, 1 mg/kg i.p. for 5 consecutive days, day 7 post-treatment", "result": "200 ± 20"}, {"measurement": "Fold larger cellular IC50 of pure BPQ than BPQ+NP", "setting": "[9]; AG83", "result": 3, "unit": "fold"}, {"measurement": "Selectivity index (SI), AG83", "setting": "[9]; CC50/IC50, intracellular", "result": "120 ± 10"}, {"measurement": "IC50", "setting": "[9]; cellular model, range over all four L. donovani strains (Table 3), read-out: Cellular IC50, range over the strains", "result": "2 to 5", "unit": "µM"}, {"measurement": "IC50", "setting": "[9]; intracellular amastigotes, 72 h, mean ± σ, n = 4, read-out: Cellular IC50, Wild-type AG83", "result": "2.9 ± 0.3", "unit": "µM"}, {"measurement": "IC50", "setting": "L. infantum infection", "result": 1.5, "unit": "µM"}, {"measurement": "IC50", "setting": "[10]; [12]", "result": "3.4 ± 0.3", "unit": "µM"}, {"measurement": "Fold higher axenic IC50 of pure BPQ than BPQ+NP", "setting": "[10]; wild-type AG83", "result": 3, "unit": "fold"}]}]}
